# Assay results: patent publication US20250161223A1, “PHARMACEUTICAL FORMULATION” (Novartis AG, priority 2022, published 2025)
# Key:
# [1] = Chemical compatibility study of drug substance alone and binary mixtures (HPLC); assay type: physicochemical; conditions: 4 weeks, 40° C./75% RH
# Procedure: For HPLC in Table 1, the following conditions were applied: • Mobile Phase A: 0.1% Trifluoroacetic acid in Water. • Mobile Phase B: Water:Acetonitrile(50:950 v/v) • Column: Aquity HSS T3, • Column Dimension: Length—100 mm, Internal Diameter—2.1 mm, Particle size—1.8 μm • Flow Rate: 0.5 mL/min • Detection: 220 nm • Column Temperature: 40° C. • Auto sampler Temperature: 22° C. • Injection Volume: 4 μL • Run Time: 13.0 minutes • Program: Gradient […] All excipients except PVP-K30 may still be suitable for formulation when used in ratios more realistic in a final formulation (see Example 2).
# [2] = Solid form conversion of slurry in water; assay type: physicochemical; conditions: 30% w/w slurry in water; after 5 hrs
# Text: WG based core tablets can easily be converted into film-coated tablets with conventional coating operations. […] Looking at an unknown landscape of polymorphs for TNO155, WG was not pursued further.
smiles,measurement,setting,value
"C[C@@H]1OCC2(CCN(c3cnc(Sc4ccnc(N)c4Cl)c(N)n3)CC2)[C@@H]1N [TNO155-BBA, (3S,4S)-8-(6-amino-5-((2-amino-3-chloropyridin-4-yl)thio)pyrazin-2-yl)-3-methyl-2-oxa-8-azaspiro[4.5]decan-4-amine succinate (1:1) hemihydrate form HA]",Assay of active ingredient,[1]; closed,98.6%
same,Assay of active ingredient,[1]; open,98.7%
same,Solid form stability in slurry,[2],solid form conversion
